Experimental data: patent US9913854B2, “Methods and compositions for reducing the proliferation of gram positive bacteria” (priority 2012, dated 2018)
Values after ≈ are worked out from the molar mass of the structure shown. “Also recorded” adds a separate entry of the source. Where two headings read alike, the source gives them in different places.

Columns and labels:
S. aureus tarO mutant = assay: Dye sensitivity test on agar plates; assay type: cell-based, Staphylococcus aureus; settings: for selective suppression of growth of tarO mutant but not parental strain on dye agar: Newman ΔtarO vs Newman; for growth on agar with Congo Red: tarO mutant, 0.08% w/v Congo Red
Description: (§1) Congo Red sensitivity tests were conducted as previously described (Hubscher et al., FEMS Microbiol. Lett. 295:251-260, 2009), with minor modification. Briefly, 10-fold dilutions, starting at 10^6 colony forming units (CFU) in 5 μL, were spotted on brain heart infusion (BHI) agar or Luria-Bertani (LB) agar, supplemented with 0.08% (w/v) Congo Red where appropriate. The Congo Red agar plates were incubated at 37° C. or 30° C. for 24 hours. As a precaution to prevent possible inactivation of Congo Red by light, the plates were incubated in the dark. Sensitivity to Congo Red was determined by comparing colony density between parental and mutant strains on control and Congo Red plates. Sudan Red 7B (0.08% w/v), Calcofluor White (0.01% w/v), Direct Red (0.08% w/v), Mordant Black (0.08% w/v), or Acid Red (0.08% w/v) in BHI agar were tested similarly.

S. aureus ltaS mutant = assay: Congo Red sensitivity test on agar plates; assay type: cell-based, Staphylococcus aureus; settings: LB agar, 0.08% w/v Congo Red, 30° C. and 37° C.
Description: as §1
To determine whether loss of lipoteichoic acid (LTA) could also generate the Congo Red susceptible phenotype, an ltaS mutant of S. aureus was tested (Oku et al., J. Bacteriol. 191:141-151, 2009). The ltaS mutant is sensitive to heat and low osmolarity (Grundling et al., Proc. Natl. Acad. Sci. U.S.A. 104:8478-8483, 2007; Oku et al., J. Bacteriol. 191:141-151, 2009). Therefore, Congo Red was added at 0.08% w/v to Luria broth (LB) agar (having a higher NaCl concentration than BHI), and the strain was tested for Congo Red sensitivity at 30° C. […]

S. aureus Newman ΔtarO = assay: Kinetics of Congo Red inhibition, growth in TSB; assay type: cell-based, Staphylococcus aureus; settings: Newman tarO, 10 mg/L Congo Red
Description: FIG. 5 is a graph showing the growth of S. aureus strain Newman (closed circles) and Newman ΔtarO (open circles) in tryptic soy broth (TSB) before and following the addition of 10 mg/L Congo Red (black arrow).
To assess kinetics of Congo Red inhibition, growth of S. aureus strain Newman and its tarO mutant were assessed in TSB containing 10 mg/L Congo Red. Newman tarO began to die 3 hours after addition of Congo Red (FIG. 5). To probe the mechanism of killing, Congo Red-inhibited cells were examined by transmission electron microscopy (TEM) (FIGS. 6A-6D). […] Since Congo red contains two sulfonic-acid groups, the MICs for sulfanilamide which is developed from prontocil were determined in the Newman and tarO mutant strains.

S. aureus tarK mutant = assay: Congo Red sensitivity test on agar plates; assay type: cell-based, Staphylococcus aureus; settings: 0.08% w/v Congo Red
Description: as §1

S. aureus tarA mutant = assay: Congo Red sensitivity test on agar plates; assay type: cell-based, Staphylococcus aureus; settings: 0.08% w/v Congo Red
Description: as §1

[1] = test system: C. elegans infected with S. aureus RN6390; assay: C. elegans infection model, S. aureus RN6390; assay type: in vivo, Caenorhabditis elegans; settings: Congo Red alone 3.1-25.0 mg/L
Description: (§2) C. elegans glp-4(bn2); sek-1(km4) was used for all experiments and infected essentially as described in Breger et al. (PLoS Pathog. 3:e18, 2007), with minor modifications. This mutant line was selected for liquid assay experiments because they are unable to produce progeny at 25° C. (Miyata et al., Genetics 178:903-918, 2008), and the deleted sek-1 gene encodes a conserved mitogen-activated protein (MAP) kinase involved in innate immunity (Kim et al., Science 297:623-626, 2002), expediting the rate of killing. Worms were cultured and maintained on nematode growth medium (NGM) agar containing lawns of E. coli HB101 (Breger et al., PLoS Pathog. 3:e18, 2007).
(§3) To assess the sensitivity of C. elegans to infection by S. aureus RN6390 or an isogenic ΔtarO strain, the bacteria were cultured in TSB at 37° C. Overnight cultures were plated onto 10 cm TSB agar plates for 18 hours at 37° C., and cooled at room temperature for 30 minutes. Washed young adult worms were infected on lawns of S. aureus strains for 3 hours at 25° C. After washing three times with M9, worms were transferred into the wells of a six well microtiter plates (40 worms per well). Each well contained 2 mL of assay medium (20% BHI: 80% M9 v/v) containing various concentrations of Congo Red, tunicamycin, or a combination of Congo Red and tunicamycin. […]

C. elegans = assay: Toxicity against uninfected C. elegans; assay type: in vivo, Caenorhabditis elegans; settings: single agent; tunicamycin 6.25-100.0 mg/L, Congo Red 3.1-50.0 mg/L; uninfected worms
Description: as §2, §3

S. aureus strain Newman = assay: Checkerboard assay, Congo Red and tunicamycin; assay type: cell-based, Staphylococcus aureus
Description: A standard checkerboard assay, using Congo Red and tunicamycin, was performed as described in Lorian (Antibiotics in Laboratory Medicine, 4th Edition, Baltimore, Md., Williams & Wilkins Co., 1996). To assess the kinetics of inhibition, cultures of strain Newman were started in TSB containing either Congo Red or tunicamycin. Briefly, an overnight culture of S. aureus strain Newman was diluted to approximately 10^5 CFU/mL in 10 mL of TSB containing 10 mg/L Congo Red or 1 mg/L tunicamycin, and cultured at 37° C. statically. Following 2 h incubation, tunicamycin (1 mg/L final concentration) was added to the Congo Red culture, or Congo Red (10 mg/L final concentration) was added to the tunicamycin culture. Following 6 h of additional incubation bacteria were enumerated by plating serial ten-fold dilutions.

[2] = test system: S. aureus tarO and tarA mutants lacking WTA; assay: MIC, for mutants lacking WTA; assay type: cell-based, Staphylococcus aureus
Description: (§4) In vitro susceptibility tests (minimum inhibitory concentration [MIC]) were conducted using the Clinical and Laboratory Standards Institute (CLSI) broth microplate assay guidelines (Clinical and Laboratory Standards Institute, Performance Standards for Antimicrobial Susceptibility Testing; 16th Informational Supplement, CLSI M100-S16, Wayne, Pa., 2006). Because of temperature sensitivity, to determine susceptibility of RN4220 ΔltaS, bacteria were cultured at 30° C. for 20 h.
Minimum inhibitory concentrations (MICs) for Congo Red were determined by microdilution assay. Consistent with the results of agar plate tests, the parental strain RN4220, and isogenic tarK, and ltaS mutants, as well as an ltaS strain complemented on a multicopy plasmid, were all resistant to Congo Red at concentrations>1024 mg/L (Table 2).

S. aureus RN6390ΔtarO = assay: MIC, CLSI broth microplate assay; assay type: cell-based; settings: Staphylococcus aureus
Description: as §4

S. aureus RN6390 = assay: MIC, CLSI broth microplate assay; assay type: cell-based; settings: Staphylococcus aureus; strain RN6390
Description: as §4

S. aureus RN4220ΔtarO = assay: MIC, CLSI broth microplate assay; assay type: cell-based; settings: Staphylococcus aureus
Description: as §4

S. aureus RN4220ΔtarA = assay: MIC, CLSI broth microplate assay; assay type: cell-based; settings: Staphylococcus aureus
Description: as §4

S. aureus NewmanΔtarO = assay: MIC, CLSI broth microplate assay; assay type: cell-based; settings: Staphylococcus aureus
Description: as §4

[3] = test system: C. elegans infected with S. aureus RN6390 ΔtarO; assay: C. elegans infection model, S. aureus RN6390 ΔtarO; assay type: in vivo, Caenorhabditis elegans; settings: Congo Red alone 3.1-25.0 mg/L
Description: as §2, §3

S. aureus Newman [4] = assay: Transmission electron microscopy after Congo Red; assay type: cell-based, Staphylococcus aureus; settings: Newman parental; 6 hours in TSB with 10 mg/L Congo Red
Description: Newman or Newman ΔtarO were inoculated to approximately 10^9 CFU/mL in TSB containing 10 mg/L Congo Red, and cultured at 37° C. for 6 h. Cells were collected at 0 or 6 h, fixed in Karnovsky's fixative (2% paraformaldehyde and 2.5% glutaraldehyde in cacodylate buffer [pH 7.4]), and processed for TEM using standard procedures described in Suzuki et al. (Invest. Ophthalmol. Vis. Sci. 52:3187-3192, 2011). For TEM, 60- to […] sections were obtained, viewed, and photographed with a transmission electron microscope (model 410; Philips Electronics NV, Eindhoven, The Netherlands).

[5] = test system: S. aureus RN4220ΔltaS-ltaS; assay: MIC, CLSI broth microplate assay; assay type: cell-based, Staphylococcus aureus
Description: as §4

S. aureus RN4220ΔtarK = assay: MIC, CLSI broth microplate assay; assay type: cell-based, Staphylococcus aureus
Description: as §4

S. aureus RN4220 = assay: MIC, CLSI broth microplate assay; assay type: cell-based, Staphylococcus aureus
Description: as §4

S. aureus RN4220ΔltaS = assay: MIC, CLSI broth microplate assay; assay type: cell-based, Staphylococcus aureus
Description: as §4

S. aureus Newman [6] = assay: MIC, CLSI broth microplate assay; assay type: cell-based, Staphylococcus aureus
Description: as §4

[7] = BHI agar, dye 0.08% w/v, 37° C., 24 hours

Q: With `CCN(CC)c1ccc2c(-c3ccc(S(=O)(=O)[O-])cc3S(=O)(=O)[O-])c3ccc(=[N+](CC)CC)cc-3oc2c1.[Na+]` [Acid Red] as the compound, how does the “selective suppression of growth of tarO mutant but not parental strain on dye agar” value (S. aureus tarO mutant; [7]) read?
A: conferred susceptibility

Q: For `O=S(=O)(O)c1cc(Nc2nc(Nc3ccccc3)nc(N(CCO)CCO)n2)ccc1/C=C/c1ccc(Nc2nc(Nc3ccccc3)nc(N(CCO)CCO)n2)cc1S(=O)(=O)O` [Calcofluor White], which “selective suppression of growth of tarO mutant but not parental strain on dye agar” value (S. aureus tarO mutant; BHI agar, dye 0.01% w/v, 37° C., 24 hours) is on record?
A: conferred susceptibility

Q: What does the source list for `Nc1c(/N=N/c2ccc(-c3ccc(/N=N/c4cc(S(=O)(=O)O)c5ccccc5c4N)cc3)cc2)cc(S(=O)(=O)O)c2ccccc12` [Congo Red]?
A: growth on agar with Congo Red (S. aureus ltaS mutant): no effect; time after addition of Congo Red at which bacteria began to die (S. aureus Newman ΔtarO): 3 h; growth on agar with Congo Red (S. aureus tarK mutant): not affected; growth on agar with Congo Red (S. aureus tarA mutant): neither tarA nor tarO strains grew; rescue of infected nematodes (survival) [1]: little effect; also recorded: inability; toxicity for C. elegans (C. elegans): little toxicity; Congo Red MIC in presence of tunicamycin (S. aureus strain Newman; tunicamycin as low as 5 mg/L): 1 µg/mL; synergy with tunicamycin (S. aureus strain Newman; two-dimensional checkerboard, 20 hours, 37° C.): strong synergy; MIC ([2]; Staphylococcus aureus): 0.5 to 4 µg/mL (≈ 0.766 to 6.13 µM); MIC fold lower than resistant strains ([2]; tarO and tarA mutants vs parental, tarK, ltaS strains): 250-2000 fold; MIC (S. aureus RN6390ΔtarO): 4 µg/mL (≈ 6.13 µM); MIC (S. aureus RN6390): > 1020 µg/mL; MIC (S. aureus RN4220ΔtarO): 2 µg/mL (≈ 3.06 µM); MIC (S. aureus RN4220ΔtarA): 0.5 µg/mL (≈ 0.766 µM); MIC (S. aureus NewmanΔtarO): 1 µg/mL (≈ 1.53 µM); rescue of infected nematodes (survival) [3]: rescue; cell morphology by TEM (S. aureus Newman [4]): not detectably affected; growth on agar with Congo Red (S. aureus tarO mutant; BHI agar, 37° C., 24 hours): highly susceptible; also recorded: neither tarA nor tarO strains grew; growth on agar with Congo Red (S. aureus tarO mutant; LB agar, 30° C. and 37° C.): inhibited; MIC ([5]; Staphylococcus aureus): > 1020 µg/mL; MIC ([5]; strain RN4220ΔltaS-ltaS (ltaS complemented on multicopy plasmid)): >1024 µg/mL; MIC (S. aureus RN4220ΔtarK; Staphylococcus aureus): > 1020 µg/mL; MIC (S. aureus RN4220ΔtarK; strain RN4220ΔtarK): >1024 µg/mL; MIC (S. aureus RN4220; Staphylococcus aureus, RN4220): > 1020 µg/mL; MIC (S. aureus RN4220; strain RN4220): >1024 µg/mL; MIC (S. aureus RN4220ΔltaS; Staphylococcus aureus, 20 h): > 1020 µg/mL; MIC (S. aureus RN4220ΔltaS; strain RN4220ΔltaS, cultured at 30° C. for 20 h): >1024 µg/mL; MIC (S. aureus Newman [6]; Staphylococcus aureus, NEWMAN): > 1020 µg/mL; MIC (S. aureus Newman [6]; strain Newman, single agent): >1024 µg/mL

Q: With `CCNc1ccc2ccccc2c1N=Nc1ccc(N=Nc2ccccc2)cc1` [Sudan Red 7B] as the compound, how does the “selective suppression of growth of tarO mutant but not parental strain on dye agar” value (S. aureus tarO mutant; [7]) read?
A: conferred susceptibility

Q: With `Nc1ccc(S(N)(=O)=O)cc1` [sulfanilamide] as the compound, how does the MIC (S. aureus NewmanΔtarO) read?
A: > 128 µg/mL

Q: And the MIC (S. aureus Newman [6]; Staphylococcus aureus, strain Newman, single agent, read-out: MIC)?
A: > 128 µg/mL

Q: Which “selective suppression of growth of tarO mutant but not parental strain on dye agar” value (S. aureus tarO mutant; [7]) does the source give for Direct Red here?
A: conferred susceptibility

Q: Mordant black was tested. Which “selective suppression of growth of tarO mutant but not parental strain on dye agar” value (S. aureus tarO mutant; [7]) did it give?
A: conferred susceptibility

Q: For tunicamycin, which “toxicity for C. elegans” value (C. elegans) is on record?
A: dose dependent toxicity
